Consider 17 compounds from PubChem BioAssay (NCI).

Structures are written as SMILES. Where “and” joins values, the source holds several entries; their conditions need not be identical. Equal entries are not always repeated.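 Test compounds were applied to cells in 96-well plates for 48 hours at 5 doses. GI50 is the concentration that inhibits growth by half. TGI: total growth inhibition.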

Among the test systems are BT-549 breast; CCRF-CEM leukemia; HT29 colon; K-562 leukemia; MOLT-4 leukemia; NCI-H226 lung; RPMI-8226 leukemia; SK-MEL-5 melanoma; M14 melanoma; SK-MEL-28 melanoma.
Common to all, as to test: inhibition of tumour cell growth, NCI panel, 48 h

As for `COc1ccc(S(=O)(=O)Nc2c(/C=C\c3cc(OC)c(OC)c(OC)c3)ccc(OC)c2O)cc1`, the GI50 in the experiment on BT-549 breast is 0.0501 µM; in the experiment on CCRF-CEM leukemia, 0.0301 µM; in the experiment on HT29 colon it was 1.4 µM; with K-562 leukemia, 0.0286 µM; with MOLT-4 leukemia, 0.0423 µM; with NCI-H226 lung, 41.3 µM. In addition, the GI50 with RPMI-8226 leukemia is 0.0469 µM; in the experiment with SK-MEL-5 melanoma, 0.0363 µM. In addition, the TGI in the experiment with BT-549 breast is 47 µM; with CCRF-CEM leukemia, over 100 µM; in the experiment with HT29 colon, 10.8 µM; with K-562 leukemia, over 100 µM; in the experiment with MOLT-4 leukemia, over 100 µM; in the experiment with NCI-H226 lung, over 100 µM. The values for the TGI in the experiment on RPMI-8226 leukemia and in the experiment on SK-MEL-5 melanoma were 22.4 µM and 0.201 µM, respectively.

For the compound `Oc1ccc2ccccc2c1C=NCc1c(O)ccc2ccccc12`, the TGI with BT-549 breast, in the experiment on CCRF-CEM leukemia, in the experiment with HT29 colon, in the experiment with K-562 leukemia, with M14 melanoma and in the experiment on MOLT-4 leukemia was over 100 µM each time. Further, the TGI with RPMI-8226 leukemia, in the experiment on SK-MEL-28 melanoma and in the experiment with SK-MEL-5 melanoma was over 100 µM in each case.

For `COc1ccc2c(c1)CCc1cc(OC)ccc1/[N+]([O-])=[N+]\2[O-]`, the TGI is 29.8 µM with BT-549 breast; 5.74 µM with CCRF-CEM leukemia; 45.2 µM in the experiment with HT29 colon; over 72.1 µM in the experiment with K-562 leukemia; over 46.4 µM in the experiment on M14 melanoma; 20.3 µM with MOLT-4 leukemia. The values for the TGI in the experiment with RPMI-8226 leukemia, in the experiment on SK-MEL-28 melanoma and with SK-MEL-5 melanoma were over 25.1 µM, 34.1 µM and 31.6 µM, respectively.

Consider `CC1=C(C(=O)Nc2ccc(F)c(Cl)c2)C(c2cccc(Oc3ccccc3)c2)NC(=S)N1` (stereo not given), for which the GI50 with BT-549 breast is 14.1 µM; with CCRF-CEM leukemia it was 17.7 µM; in the experiment on K-562 leukemia it was 10.7 µM; in the experiment with M14 melanoma, 12 µM; in the experiment on MOLT-4 leukemia, over 50 µM; in the experiment on RPMI-8226 leukemia, 16.8 µM. For the same compound, the figures for the GI50 with SK-MEL-28 melanoma and with SK-MEL-5 melanoma were 8.89 µM and 10.2 µM, respectively. The TGI is 32.4 µM with BT-549 breast; 47.6 µM in the experiment on CCRF-CEM leukemia; 31.6 µM with K-562 leukemia; 27.3 µM with M14 melanoma; over 50 µM in the experiment on MOLT-4 leukemia; over 50 µM in the experiment on RPMI-8226 leukemia. Further, the figures for the TGI in the experiment with SK-MEL-28 melanoma and in the experiment on SK-MEL-5 melanoma were 25.9 µM and 19.6 µM, respectively.

For `COc1cc2ncnc(Nc3ccc(Oc4ccnc(C)c4)c(C)c3)c2cc1NC(=O)CC1CCSS1` (stereo not given), the GI50 with BT-549 breast was 1.2 µM; in the experiment on CCRF-CEM leukemia it was 0.253 µM; with K-562 leukemia it was 0.253 µM; with MOLT-4 leukemia it was 0.134 µM; with NCI-H226 lung it was 1.68 µM; in the experiment on RPMI-8226 leukemia, 1.14 µM. Also, in the experiment on SK-MEL-5 melanoma, the GI50 was 0.974 µM. Moreover, the TGI in the experiment on BT-549 breast is 2.94 µM; in the experiment with CCRF-CEM leukemia it was 1.69 µM; in the experiment with K-562 leukemia, 1.18 µM; with MOLT-4 leukemia, 0.435 µM; in the experiment on NCI-H226 lung, over 12.9 µM; in the experiment with RPMI-8226 leukemia, 3.31 µM. Moreover, the TGI in the experiment with SK-MEL-5 melanoma worked out at 1.99 µM.

In the case of `NCCCNc1nc2ccccc2c2c(=O)c3cccc(Cl)c3sc12`, the GI50 in the experiment with BT-549 breast is 1.45 µM; in the experiment on M14 melanoma it was 1.61 µM; in the experiment with SK-MEL-28 melanoma it was 1.81 µM; with SK-MEL-5 melanoma it was 1.58 µM. For the same compound, the TGI turned out to be 2.81 µM in the experiment with BT-549 breast, 3.06 µM in the experiment with M14 melanoma, 3.29 µM with SK-MEL-28 melanoma and 2.94 µM in the experiment on SK-MEL-5 melanoma.

As for `Oc1ccc(C(O)(c2ccccc2)c2ccccc2)c2ccccc12`, the TGI is 26.1 µM with BT-549 breast; 1.8 µM in the experiment on CCRF-CEM leukemia; 14.1 µM with HT29 colon; 23.5 µM with K-562 leukemia; 10.7 µM with M14 melanoma; over 100 µM with MOLT-4 leukemia. Further, the TGI in the experiment with NCI-H226 lung was determined as 9.8 µM; in the experiment with SK-MEL-28 melanoma, 29.9 µM; with SK-MEL-5 melanoma it was 14.6 µM.

As for `O=C1C=C(OCC=C(C(F)(F)F)C(F)(F)F)c2ccccc2C1=O`, the GI50 is 2.49 µM in the experiment on BT-549 breast; 1.17 µM in the experiment with CCRF-CEM leukemia; 2.4 µM with HT29 colon; 1.97 µM in the experiment with K-562 leukemia; 1.88 µM in the experiment with M14 melanoma; 2.35 µM in the experiment on MOLT-4 leukemia. Further, the GI50 with RPMI-8226 leukemia was 1.63 µM; with SK-MEL-28 melanoma, 1.87 µM; in the experiment on SK-MEL-5 melanoma, 1.51 µM. For the same compound, the TGI in the experiment with BT-549 breast was 6.64 µM; with CCRF-CEM leukemia, 5.22 µM; in the experiment on HT29 colon, 5.47 µM; in the experiment with K-562 leukemia, 5.42 µM; in the experiment with M14 melanoma, 3.87 µM; with MOLT-4 leukemia, 5.38 µM. The results for the TGI in the experiment with RPMI-8226 leukemia, with SK-MEL-28 melanoma and in the experiment with SK-MEL-5 melanoma were 4.29 µM, 3.61 µM and 2.95 µM, respectively.

As for `O=C(N=c1nc(NC(=O)c2ccccc2)ss1)c1ccccc1`, the TGI in the experiment on CCRF-CEM leukemia is over 100 µM; with HT29 colon, 37.6 µM; in the experiment on K-562 leukemia, over 100 µM; with M14 melanoma, 76.2 µM; in the experiment on MOLT-4 leukemia, over 100 µM; in the experiment with NCI-H226 lung, over 100 µM. Also, the TGI was 77.6 µM in the experiment with RPMI-8226 leukemia, over 100 µM in the experiment on SK-MEL-28 melanoma and 34.7 µM in the experiment with SK-MEL-5 melanoma.

As to `CC(=O)NNc1nc(C)c(C(=O)NNC(=O)C(=O)Nc2c([N+](=O)[O-])ccc(C)c2C)s1`, the TGI in the experiment with CCRF-CEM leukemia, in the experiment on HT29 colon, in the experiment with K-562 leukemia, with M14 melanoma, with MOLT-4 leukemia and with NCI-H226 lung was over 100 µM in each case. For the same compound, the TGI with RPMI-8226 leukemia, in the experiment with SK-MEL-28 melanoma and in the experiment with SK-MEL-5 melanoma was over 100 µM each time.

For the compound `CCOC(=O)c1c(C)nc2c(c1N)/C(=C/c1ccccn1)C(=O)N2Cc1ccccc1`, the GI50 is 1.11 µM in the experiment on BT-549 breast; 1.56 µM in the experiment with CCRF-CEM leukemia; 1.32 µM in the experiment on HT29 colon; 1.77 µM with K-562 leukemia; 1.03 µM in the experiment on M14 melanoma; 1.72 µM with MOLT-4 leukemia. For the same compound, the GI50 is 1.21 µM in the experiment on RPMI-8226 leukemia, 1.16 µM with SK-MEL-28 melanoma and 0.95 µM in the experiment on SK-MEL-5 melanoma. The TGI in the experiment on BT-549 breast was 3.09 µM; in the experiment on CCRF-CEM leukemia it was over 50 µM; in the experiment with HT29 colon it was 3.14 µM; in the experiment with K-562 leukemia, over 50 µM; in the experiment with M14 melanoma, 2.39 µM; in the experiment on MOLT-4 leukemia, over 50 µM. Besides, the TGI was found to be 3.22 µM in the experiment with RPMI-8226 leukemia, 3.21 µM with SK-MEL-28 melanoma and 1.92 µM in the experiment on SK-MEL-5 melanoma.

Consider `COc1ccc2c(c1)/C(=C\c1c(-c3cc(OC)ccc3OC)nc3sccn13)C(=O)N2`, for which the GI50 is 4.67 µM with BT-549 breast; 6.91 µM in the experiment on CCRF-CEM leukemia; 1.37 µM with HT29 colon; 5.88 µM in the experiment on K-562 leukemia; 7.14 µM and 1.71 µM with M14 melanoma; 11.8 µM in the experiment on NCI-H226 lung. For the same compound, the values for the GI50 with RPMI-8226 leukemia and with SK-MEL-28 melanoma were 3.4 µM and 1.49 µM, respectively. Moreover, the TGI with HT29 colon stood at 2.66 µM; with M14 melanoma, 3.09 µM; in the experiment on NCI-H226 lung, 54.2 µM; in the experiment with SK-MEL-28 melanoma, 2.81 µM.

For `COc1cc2c(c(OC)c1OC)-c1ccc(SC)c(=O)cc1[C@@H](NC(=O)C(F)(F)F)CC2`, the TGI with BT-549 breast is over 100 µM; in the experiment on CCRF-CEM leukemia, over 100 µM; in the experiment with HT29 colon it was 0.182 µM; in the experiment on K-562 leukemia it was over 85.2 µM; with M14 melanoma, 42.5 µM; in the experiment with MOLT-4 leukemia, over 27.2 µM. For the same compound, the TGI in the experiment on RPMI-8226 leukemia was over 100 µM; in the experiment with SK-MEL-28 melanoma it was 17.8 µM; with SK-MEL-5 melanoma, 0.138 µM.

Take `NS(=O)(=O)c1ccc(NC(=O)C2C(=O)C(=O)N(c3ccc(S(N)(=O)=O)cc3)C2=O)cc1` (stereo not given): the TGI in the experiment on CCRF-CEM leukemia, with HT29 colon, with K-562 leukemia, with M14 melanoma, with MOLT-4 leukemia and in the experiment on NCI-H226 lung was over 100 µM each time. Further, the TGI in the experiment with RPMI-8226 leukemia, in the experiment with SK-MEL-28 melanoma and in the experiment with SK-MEL-5 melanoma was over 100 µM throughout.

`CN(C)Cc1ccc(NC(=O)c2cncc(C#Cc3cnc(N)c4ncccc34)c2)cc1F`: the GI50 is 19.4 µM with BT-549 breast; 2.29 µM in the experiment on CCRF-CEM leukemia; 0.0566 µM in the experiment on K-562 leukemia; 2.21 µM in the experiment with MOLT-4 leukemia; 1.97 µM with RPMI-8226 leukemia; 1.85 µM in the experiment with SK-MEL-28 melanoma. The GI50 in the experiment on SK-MEL-5 melanoma is 1.7 µM. Further, the TGI amounted to 39.6 µM in the experiment on BT-549 breast; 6.66 µM in the experiment with CCRF-CEM leukemia; 1.85 µM in the experiment on K-562 leukemia; 5.3 µM with MOLT-4 leukemia; 4.75 µM in the experiment on RPMI-8226 leukemia; 3.46 µM with SK-MEL-28 melanoma. The compound also returned a TGI in the experiment with SK-MEL-5 melanoma of 3.29 µM.

Consider `C(=C\C(Sc1ccccc1)c1ccccc1)/NNC1=NC(c2ccccc2)C(c2ccccc2)=NN1` (stereo not given), for which the TGI was 49.5 µM in the experiment on CCRF-CEM leukemia; 35.4 µM with HT29 colon; 38 µM in the experiment on K-562 leukemia; over 100 µM with M14 melanoma; 77.9 µM in the experiment on MOLT-4 leukemia; over 100 µM in the experiment on NCI-H226 lung. Further, the figures for the TGI in the experiment on RPMI-8226 leukemia, in the experiment on SK-MEL-28 melanoma and in the experiment on SK-MEL-5 melanoma were 45.5 µM, over 100 µM and over 100 µM, respectively.

`[N-]=[N+]=NCCCn1c2c(c3ccc([N+](=O)[O-])cc3c1=O)C(=O)c1cc(-c3ccccc3)ccc1-2`: the GI50 with BT-549 breast, with CCRF-CEM leukemia, with HT29 colon, in the experiment with M14 melanoma, in the experiment with NCI-H226 lung and with RPMI-8226 leukemia was over 100 µM throughout. The GI50 is over 100 µM in the experiment on SK-MEL-28 melanoma and 89 µM in the experiment with SK-MEL-5 melanoma. Further, the TGI with BT-549 breast, in the experiment on CCRF-CEM leukemia, with HT29 colon, in the experiment on K-562 leukemia, in the experiment with M14 melanoma and with NCI-H226 lung was over 100 µM in each case. Moreover, the TGI with RPMI-8226 leukemia, in the experiment with SK-MEL-28 melanoma and with SK-MEL-5 melanoma was over 100 µM each time.
